Assay results: patent US12103939B2, “Solid pharmaceutical gold-based composition” (KING FAHD UNIVERSITY OF PETROLEUM AND MINERALS, priority 2019, dated 2024)

Tests used:
[1] = tested on: PC3 prostate cancer cell line; assay: Cytotoxicity assay (MTT, 72 h); format: cell-based, human; settings: PC3, MTT after 72 h, mean (SD); read-out: Half-maximal inhibitory concentration (IC50)
Method: (§1) R-ME-180 and A2780cis cells were maintained in 1 μM cisplatin. Adipose-derived stromal cells were maintained in MSCGM BulletKit medium (Lonza). All cell lines were cultured at 37° C. in a 5% CO2, fully humidified atmosphere
(§2) Cell lines were seeded in 96-well flat-bottomed microplates in 100 μL culture medium at the following densities: DU145, PC3 and MCF-7 cells (2.5×10^3 cells/well); A2780, A2780cis, ME-180, R-ME-180 and A549 cells (4.0×10^3 cells/well); and MG-63 cells (2.0×10^3 cells/well). Cells were allowed to adhere for 24 h. Then the medium was replaced with fresh medium alone or with one of the gold(III) complexes at increasing concentrations from 0 to 100 μM. The reference drugs cisplatin (0-100 μM) and doxorubicin (0-1 μM) were included as positive controls for growth inhibition. After 72 h, cell viability was assayed using the MTT assay.
(§3) See Chou T. C.; Talalay P. Quantitative analysis of dose-effect relationships: the combined effects of multiple drugs or enzyme inhibitors. […] 22, 27-55, incorporated herein by reference in its entirety. IC50 values were reported as mean (SD). For drug-resistance cell lines, fold resistance (FR) was calculated as the ratio of the IC50 of the resistant cell line to the IC50 of the parental cell line.

[2] = tested on: A549 lung cancer cell line; assay: Cytotoxicity assay (MTT, 72 h); format: cell-based, human; settings: A549, MTT after 72 h, mean (SD); read-out: Half-maximal inhibitory concentration (IC50)
Method: as §1, §2, §3

[3] = tested on: cisplatin- and doxorubicin-resistant A2780cis clone; assay: Cytotoxicity assay (MTT, 72 h); format: cell-based, human; settings: for IC50: A2780cis, MTT after 72 h, mean (SD); for FR (A2780cis/A2780), fold resistance: IC50 A2780cis / IC50 A2780
Method: as §1, §2, §3

[4] = tested on: DU145 prostate cancer cell line; assay: Cytotoxicity assay (MTT, 72 h); format: cell-based, human; settings: DU145, MTT after 72 h, mean (SD); read-out: Half-maximal inhibitory concentration (IC50)
Method: as §1, §2, §3

[5] = tested on: ovarian cancer cell line A2780; assay: Cytotoxicity assay (MTT, 72 h); format: cell-based, human; settings: A2780, MTT after 72 h, mean (SD)
Method: as §1, §2, §3

[6] = tested on: cervical cancer cell line ME-180; assay: Cytotoxicity assay (MTT, 72 h); format: cell-based, human; settings: ME-180, MTT after 72 h, mean (SD)
Method: as §1, §2, §3

[7] = tested on: MCF-7 breast cancer cell line; assay: Cytotoxicity assay (MTT, 72 h); format: cell-based, human; settings: MCF-7, MTT after 72 h, mean (SD); read-out: Half-maximal inhibitory concentration (IC50)
Method: as §1, §2, §3

[8] = tested on: MG-63 osteosarcoma cell line; assay: Cytotoxicity assay (MTT, 72 h); format: cell-based, human; settings: MG63, MTT after 72 h, mean (SD); read-out: Half-maximal inhibitory concentration (IC50)
Method: as §1, §2, §3

[9] = tested on: cisplatin-resistant R-ME-180 clone; assay: Cytotoxicity assay (MTT, 72 h); format: cell-based, human; settings: for FR (R-ME-180/ME-180), fold resistance: IC50 R-ME-180 / IC50 ME-180; for IC50: R-ME-180, MTT after 72 h, mean (SD)
Method: as §1, §2, §3

lysozyme = target: T1, lysozyme (Gallus gallus, UniProt P00698); assay: Voltammetry, interaction with lysozyme; settings: 100 μM complex
T1 construct: purchased Sigma-Aldrich
T1 sequence (P00698 19-147): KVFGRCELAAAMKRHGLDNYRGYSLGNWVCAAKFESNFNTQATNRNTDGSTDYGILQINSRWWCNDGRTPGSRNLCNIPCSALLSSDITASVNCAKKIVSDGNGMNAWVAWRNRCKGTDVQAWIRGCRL
Method: The pH of buffers was monitored on a Accumet XL50 pH meter. A GR-2000 electrical balance was used to weigh the various chemicals. Electrochemical measurements for cyclic voltammetry and square wave voltammetry were performed using Autolab instruments (Metrohm; Netherlands). […] The GCE was polished as a mirror-like surface with alumina slurry on a synthetic cloth before every electrochemical analysis. Square wave voltammetry and cyclic voltammetry were scanned from 0 to 1.3 V for the various analyses. Elemental analyses of gold(III) complexes (C1-C8) were performed on PerkinElmer Series 11 (CHNS/O), Analyzer 2400.
The electrochemical investigation of the interactions between the gold(III) complexes (C1-C8) and lysozyme, tryptophan and guanine was performed using the Autolab instrument described above, with a three-electrode system (CH Instruments): platinum wire counter electrode (CHI115), Ag/AgCl reference electrode (in 3 M KCl, CHI111) and glassy carbon working electrode (CHI112) inserted into a 5.0 ml glass cell. Solutions of 1 mM lysozyme, 5 mM tryptophan and 5 mM guanine were prepared in double distilled water, and the experiment was performed in 0.1 M phosphate buffer at pH 6.8.

PC3 cells = assay: Cellular uptake of gold(III) complexes (ICP-MS); format: cell-based, human; settings: 3 μM, 2 h, ICP mass spectrometry
Method: After treatment, monolayers were washed with ice-cold PBS four times, and the cells were detached with trypsin-EDTA and washed three times with ice-cold PBS by centrifugation. The cell pellet was solubilized in 700 μL of HNO3—HCl solution (1:3 molar ratio) for 2 h at 100° C., and then diluted with 4 mL water. Samples were analyzed for gold on an Agilent 7500 inductively coupled plasma mass spectrometer (ICP-MS). Results were expressed as ng gold/10^6 cells. The experiment was performed a total of two times and the results were expressed as mean and SD.

[10] = CV, 0 μM lysozyme, 0.1 M phosphate buffer pH 6.8

SMILES	IC50 [1] [µM]	IC50 [2] [µM]	IC50 [3] [µM]	FR (A2780cis/A2780), fold resistance [3]	IC50 [4] [µM]	IC50 [5] [µM]	IC50 [6] [µM]	IC50 [7] [µM]	IC50 [8] [µM]	FR (R-ME-180/ME-180), fold resistance [9]	IC50 [9] [µM]	Voltammetry peak potential (lysozyme; [10]) [V]	Voltammetry peak potential (lysozyme; CV, 1 μM lysozyme, pH 6.8) [V]	Voltammetry peak potential (lysozyme; CV, 4 μM lysozyme, pH 6.8) [V]	Voltammetry peak potential (lysozyme; CV, 10 μM lysozyme, pH 6.8) [V]	Voltammetry peak potential (lysozyme; SWV, 0 μM lysozyme, pH 6.8) [V]	Voltammetry peak potential (lysozyme; SWV, 1 μM lysozyme, pH 6.8) [V]	Voltammetry peak potential (lysozyme; SWV, 4 μM lysozyme, pH 6.8) [V]	Voltammetry peak potential (lysozyme; SWV, 10 μM lysozyme, pH 6.8) [V]	also measured
Oc1ccc[n+]2c1-c1c(O)ccc[n+]1[Au-]21[S]C(N(Cc2ccccc2)Cc2ccccc2)=[S+]1.[Cl-].[Cl-] [C4, [Au(BPYH)(DBDTC)]Cl2]	8.5	25	8.2	1.1	6.4	7.3	30	13	12.3	1.0	30	0.7965	0.8098	0.8186	0.8275	0.7883	0.7934	0.8085	0.8135	
N.N.[Cl][Pt][Cl] [Cisplatin, reference compound]	3.3		10.4	6.9	4.5	1.5	15			4.5	68									
[Cl-].[Cl-].[Cl-].[Cl-].c1ccc(C[N+](Cc2ccccc2)=C2[S][Au-]3([S]2)[n+]2ccc[n+]4c2-c2[n+]3ccc[n+]2[Au-]42[S]C(=[N+](Cc3ccccc3)Cc3ccccc3)[S]2)cc1 [C8, [Au2(BPM)(DBDTC)2]Cl4]	19.5	23	5.2	1.4	22.8	3.8	15	9.5	5.8	1.0	16									
COc1cccc2c1C(=O)c1c(O)c3c(c(O)c1C2=O)C[C@@](O)(C(=O)CO)C[C@@H]3O[C@H]1C[C@H](N)[C@H](O)[C@H](C)O1 [Doxorubicin, reference compound]				9.0																IC50 ([3]; Homo sapiens): 0.12 µM; IC50 ([5]; Homo sapiens): 0.02 µM
CC[N+](CC)=C1[S][Au-]2([S]1)[n+]1ccc[n+]3c1-c1[n+]2ccc[n+]1[Au-]31[S]C(=[N+](CC)CC)[S]1.[Cl-].[Cl-].[Cl-].[Cl-] [C7, [Au2(BPM)(DEDTC)2]Cl4]	0.8	1.4	0.3	0.9	0.8			0.6	0.7	0.9	4.1									amount of internalized gold (cellular uptake) (PC3 cells): greater uptake
[Cl-].[Cl-].[Cl][Au-]1([Cl])[n+]2ccc[n+]3c2-c2[n+]1ccc[n+]2[Au-]3([Cl])[Cl] [C5, [Au2(BPM)(Cl)4]Cl2]	> 80	> 80	16.2	1.1	> 80	15.4	> 80	65	26		> 80									
Oc1ccc[n+]2c1-c1c(O)ccc[n+]1[Au-]2([Cl])[Cl].[Cl-] [C1, [Au(BPYH)(Cl)2]Cl]	28.3	> 80	24	1.0	39	23	70	59	43	1.0	72	0.739	0.8142	0.8319	0.8762	0.7934	0.8034	0.8387	0.8639	
CCN(CC)C1=[S+][Au-]2([S]1)[n+]1cccc(O)c1-c1c(O)ccc[n+]12.[Cl-].[Cl-] [C3, [Au(BPYH)(DEDTC)]Cl2]	1.3	3.8	0.4	1.1	3.5			1.7	1.2	1.3	3.8	0.7965	0.8098	0.8231	0.8363	0.7934	0.8034	0.8135	0.8236	
CN(C)C1=[S+][Au-]2([S]1)[n+]1cccc(O)c1-c1c(O)ccc[n+]12.[Cl-].[Cl-] [C2, [Au(BPYH)(DMDTC)]Cl2]	1.5	6.1	0.8	0.9	2.8	0.9	14	2.3	3.8	1.5	21	0.7921	0.8009	0.8186	0.8319	0.7883	0.7934	0.8085	0.8135	
